{"source": "patent US20180188270A1", "about": "“DIAGNOSTIC TEST FOR ALZHEIMER'S DISEASE BASED ON IDENTIFICATION OF A PROTEOLYTIC PATHWAY” (Health Research, Inc., priority 2015, published 2018)", "molecules": {"B1": {"name": "mPEPD: mouse PEPD purified from mouse kidney by immunoaffinity purification, without any tag (protein, UniProt Q11136 2-493, looked up)", "Xaa-Pro dipeptidase": "ASTVRPSFSLGNETLKVPLALFALNRQRLCERLRKNGAVQAASAVVLQGGEEMQRYCTDTSIIFRQESFFHWAFGVVESGCYGVIDVDTGKSTLFVPRLPDSYATWMGKIHSKEYFKEKYAVDDVQYTDEIASVLTSRNPSVLLTLRGVNTDSGSVCREASFEGISKFNVNNTILHPEIVECRVFKTDMELEVLRYTNRISSEAHREVMKAVKVGMKEYEMESLFQHYCYSRGGMRHTSYTCICCSGENAAVLHYGHAGAPNDRTIKDGDICLFDMGGEYYCFASDITCSFPANGKFTEDQKAIYEAVLRSCRTVMSTMKPGVWWPDMHRLADRIHLEELARIGLLSGSVDAMLQVHLGAVFMPHGLGHFLGLDVHDVGGYPEGVERIDEPGLRSLRTARHLEPGMVLTVEPGIYFIDHLLDQALADPAQACFFNQEVLQRFRNFGGVRIEEDVVVTDSGMELLTCVPRTVEEIEACMAGCDKASVPFSGQK"}, "B2": {"name": "1M-265Rdel-hPEPD: hPEPD deletion mutant, cannot form homodimers (protein, UniProt P12955 266-493, looked up, fragment)", "chain": "TIQNGDMCLFDMGGEYYCFASDITCSFPANGKFTADQKAVYEAVLRSSRAVMGAMKPGVWWPDMHRLADRIHLEELAHMGILSGSVDAMVQAHLGAVFMPHGLGHFLGIDVHDVGGYPEGVERIDEPGLRSLRTARHLQPGMVLTVEPGIYFIDHLLDEALADPARASFLNREVLQRFRGFGGVRIEEDVVVTDSGIELLTCVPRTVEEIEACMAGCDKAFTPFSGPK"}, "B3": {"name": "185V-493Kdel-hPEPD: hPEPD deletion mutant, cannot form homodimers (protein, UniProt P12955 1-184, looked up, fragment)", "chain": "MAAATGPSFWLGNETLKVPLALFALNRQRLCERLRKNPAVQAGSIVVLQGGEETQRYCTDTGVLFRQESFFHWAFGVTEPGCYGVIDVDTGKSTLFVPRLPASHATWMGKIHSKEHFKEKYAVDDVQYVDEIASVLTSQKPSVLLTLRGVNTDSGSVCREASFDGISKFEVNNTILHPEIVECR"}, "B4": {"name": "266T-493Kdel-hPEPD: hPEPD deletion mutant, cannot form homodimers (protein, UniProt P12955 1-265, looked up, fragment)", "chain": "MAAATGPSFWLGNETLKVPLALFALNRQRLCERLRKNPAVQAGSIVVLQGGEETQRYCTDTGVLFRQESFFHWAFGVTEPGCYGVIDVDTGKSTLFVPRLPASHATWMGKIHSKEHFKEKYAVDDVQYVDEIASVLTSQKPSVLLTLRGVNTDSGSVCREASFDGISKFEVNNTILHPEIVECRVFKTDMELEVLRYTNKISSEAHREVMKAVKVGMKEYELESLFEHYCYSRGGMRHSSYTCICGSGENSAVLHYGHAGAPNDR"}, "B5": {"name": "1M-228Hdel-hPEPD: hPEPD mutant named only once; probably 1M-265Rdel-hPEPD (protein, UniProt P12955 229-493, looked up, fragment)", "chain": "YCYSRGGMRHSSYTCICGSGENSAVLHYGHAGAPNDRTIQNGDMCLFDMGGEYYCFASDITCSFPANGKFTADQKAVYEAVLRSSRAVMGAMKPGVWWPDMHRLADRIHLEELAHMGILSGSVDAMVQAHLGAVFMPHGLGHFLGIDVHDVGGYPEGVERIDEPGLRSLRTARHLQPGMVLTVEPGIYFIDHLLDEALADPARASFLNREVLQRFRGFGGVRIEEDVVVTDSGIELLTCVPRTVEEIEACMAGCDKAFTPFSGPK"}}, "key": {"plasma hAβ1-42": {"test_system": "plasma hAβ1-42", "assay": "Effects of oral anticoagulants on plasma level of hAβ1-42 in mice", "assay_type": "in vivo", "details": "for elevation of plasma levels of hAβ1-42: hAβ1-42 40 μg/kg, 6 h; for top dose tested is the maximal soluble dose: mouse, in vivo", "procedure": "Blood was collected into K3 EDTA-containing tubes (Multivette 600 from Sarstedt). […] Rivaroxaban, dabigatran (dabigatran elexilate) and warfarin (warfarin sodium tablets) were from Bristol-Myers-Squibb, Combi-Blocks, and Advanced Chemblocks, respectively. Rivaroxaban was dissolved in 10% ethanol, 40% Solutol HS15 (Sigma) and 50% water and was administered to mice in 0.2 ml volume per 20 g body weight. Dabigatran was dissolved in 2% dimethyl sulfoxide in soy oil (Sigma) and was also administered to mice in 0.2 ml volume per 20 g body weight. Warfarin was dissolved in water and was administered to mice in 0.1 ml volume per 20 g body weight."}, "[1]": {"test_system": "plasma coagulation factors FXII, PK, HMWK, FXI, FIX, FX, FII, FI and FVII", "assay": "Changes in plasma coagulation factors in mice by IB (FI by ELISA)", "assay_type": "in vivo, mouse", "details": "WT mice, 6 h after i.p. treatment", "protocol": "Animal studies. […] Male mice at 7-8 weeks of age were used, including wild type (WT) mice (C57BL/6), and mice deficient in FXII (C57BL/6-FXII^−/−) or FVII (C57BL/6-FVII^tTA/tTA). WT C57BL/6 mice were purchased from Taconic. C57BL/6-FXII^−/− mice and C57BL/6-FVII^tTA/tTA mice were bred in our own facility and genotyped. […] CCl4 was dissolved in corn oil, whereas all other substances were dissolved in PBS. The vehicle or the test substance was given to mice in 0.1 ml volume per 20 g body weight. Blood was collected from the mice at specific times by cardiac puncture at the time of sacrifice by carbon dioxide, and heart, liver and kidney were also collected from some of the mice. Blood was collected into K3 EDTA-containing tubes (Multivette 600 from Sarstedt), unless specified otherwise. All blood samples were promptly centrifuged to obtain plasma samples.\nThe plates were washed three times with phosphate buffered saline tween-20 (PBST) and the coated wells were blocked by incubation with 200 μl/well of 1% BSA in PBS for at least 2 h at RT. […] The plates were washed again with PBST, and each well was incubated with a goat anti-rabbit IgG-HRP conjugate (100 μl) for 1 h at RT. After yet another round of wash with PBST, each well was incubated with 100 μl of HRP substrate 3,3′,5,5′-tetramethylbenzedine (Cell Signaling, 7004). Upon adequate color development, 100 μl of stop solution (Cell Signaling, 7002) was added to each well, and absorbance at 450 nm was promptly recorded by a microtiter plate reader. Plasma FI concentration was determined using an assay kit (400-374-130050) from GenWay Biotech, following the manufacturer's instruction.\nIB. Tissue samples were mixed with RIPA buffer (25 mM Tris-HCl, pH 7.6, 150 mM NaCl, 1% Nonidet P-40, 1% sodium deoxycholate, 0.1% SDS), supplemented with 2 mM phenylmethanesulfonyl fluoride, a proteinase inhibitor mix (Roche Applied Science) and phosphatase inhibitor Cocktail 2 (Sigma-Aldrich). Tissue samples were stroked in a Dounce homogenizer, and the homogenates were cleared by centrifugation at 12,000×g for 15 min at 4° C. Protein concentrations in all samples were measured by the BCA assay kit. Plasma samples were used without further processing (20 μl per sample). Each sample was mixed with 4× loading dye, heated for 5 min at 95° C. and then resolved by SDS-PAGE (8-12.5%). […] The proteins were transferred to polyvinylidene fluoride membrane, probed with specific antibodies and detected using the ECL Plus Kit (Amersham) or the SuperSignal West Pico Kit (Thermo Scientific)."}, "FXII [2]": {"test_system": "FXII", "assay": "Binding to coagulation factor FXII (IP and IB)", "design": "species or system human", "details": "40 nM (hAβ1-42 200 nM) with FXII in PBS, 2 h", "protocol": "Binding reactions were carried out in PBS in a total volume of 100 μl for 2 h at 37° C. To assess binding of hPEPD to HMWK, PK, FXI, FXII or a FXII mutant, hPEPD at 40 nM was incubated with a potential binding partner at 0.5 μM. All FXII mutants are His tagged, while FXII is either 6XHis-tagged (generated in our own laboratory) or not His-tagged (purchased commercially), depending on the experiment. To compare hPEPD and its mutants for binding to FXII, hPEPD or a mutant (40 nM) was incubated with FXII at 0.5 μM. Likewise, to assess binding of mSRC to FXII and its mutants, mSRC (40 nM) was incubated with FXII or a mutant at 0.5 μM. At the end of the incubation, 300 μl PBS containing a specific primary antibody was added to the incubation solution, which was further incubated at 4° C. overnight, followed by IP by protein G-agarose, and the precipitates were analyzed by IB. […] The precipitates were re-dissolved in 30 μl of 2% SDS, which were analyzed along with the supernatants by IB."}, "FXII [3]": {"test_system": "FXII", "assay": "FXII activation, chromogenic assay", "assay_type": "biochemical, human", "details": "FXII 0.97 nM, ZnCl2-containing PBS, RT", "procedure": "Measurement of FXII activation. […] FXII activation was followed for 3 h at RT by monitoring the conversion of the chromogenic substrate at 405 nm by a microtiter plate reader.\nEach value is mean±SD (n=3)."}}, "note": "Entries after “also recorded” stand apart in the source; their conditions may differ."}
{"molecule": "[H]/N=C(/N)c1ccc(NCc2nc3cc(C(=O)N(CCC(=O)O)c4ccccn4)ccc3n2C)cc1", "note": "[dabigatran]", "values": [{"measurement": "elevation of plasma levels of hAβ1-42", "setting": "plasma hAβ1-42; dabigatran 22.5 mg/kg oral once daily 5 days", "result": 14.1, "unit": "fold"}, {"measurement": "elevation of plasma levels of hAβ1-42", "setting": "plasma hAβ1-42; dabigatran 45 mg/kg oral once daily 5 days", "result": 21.3, "unit": "fold"}, {"measurement": "top dose tested is the maximal soluble dose", "setting": "plasma hAβ1-42", "result": "maximal soluble doses"}]}
{"molecule": "O=C(NC[C@H]1CN(c2ccc(N3CCOCC3=O)cc2)C(=O)O1)c1ccc(Cl)s1", "note": "[rivaroxaban]", "values": [{"measurement": "relative effectiveness in elevating plasma hAβ1-42 level", "setting": "plasma hAβ1-42; comparison among warfarin, rivaroxaban, dabigatran and with EP", "result": "the most effective; also recorded: not as effective as EP"}, {"measurement": "top dose tested is the maximal soluble dose", "setting": "plasma hAβ1-42", "result": "maximal soluble doses"}, {"measurement": "elevation of plasma levels of hAβ1-42", "setting": "plasma hAβ1-42; rivaroxaban 10 mg/kg oral once daily 5 days", "result": 47.2, "unit": "fold"}, {"measurement": "elevation of plasma levels of hAβ1-42", "setting": "plasma hAβ1-42; rivaroxaban 20 mg/kg oral once daily 5 days", "result": 55.5, "unit": "fold"}]}
{"molecule": "CC(=O)CC(c1ccccc1)c1c(O)c2ccccc2oc1=O", "note": "(centres unmarked) [warfarin]", "values": [{"measurement": "elevation of plasma levels of hAβ1-42", "setting": "plasma hAβ1-42; warfarin 1 mg/kg oral once daily 5 days", "result": 33.2, "unit": "fold"}, {"measurement": "elevation of plasma levels of hAβ1-42", "setting": "plasma hAβ1-42; warfarin 3 mg/kg oral once daily 5 days", "result": 42.4, "unit": "fold"}]}
{"molecule": "B1", "values": [{"measurement": "activation/cleavage of plasma coagulation factors", "setting": "[1]", "result": "elicited the same response as did hPEPD"}]}
{"molecule": "B2", "values": [{"measurement": "binding to FXII", "setting": "FXII [2]", "result": "almost indistinguishable from hPEPD in FXII binding"}]}
{"molecule": "B3", "values": [{"measurement": "binding to FXII", "setting": "FXII [2]", "result": "neither 185V-493Kdel-hPEPD nor 266T-493Kdel-hPEPD could bind to FXII"}]}
{"molecule": "B4", "values": [{"measurement": "binding to FXII", "setting": "FXII [2]", "result": "neither 185V-493Kdel-hPEPD nor 266T-493Kdel-hPEPD could bind to FXII"}]}
{"molecule": "B5", "values": [{"measurement": "FXII activation, activity relative to hPEPD", "setting": "FXII [3]", "result": "about 50%"}]}
